This note sets out measurements from patent publication US20250002954A1, “Novel Compound, Use Thereof, and Method for Producing Same, and Compound-Containing Composition, Method for Producing 4-Trehalosamine, and Microorganism” (Microbial Chemistry Research Foundation, priority 2021, published 2025).

A short description of data set [1]: Starch aging inhibiting effect, enzyme assay 5 (wheat flour gel). The settings on record: final concentration 10% or 15% (w/w), 48 and 96 hours. Here is the method: Starch aging inhibiting effect was determined in a similar manner to the <Enzyme assay 3> except that potato starch was changed to wheat flour (organic wheat flour, from Kanazawa Daichi) in the “—Preparation of measurement samples—” of the <Enzyme assay 3>. The results for the 10% (w/w) final concentration of the different sugars are shown in FIG. 15I, and the results for the 15% (w/w) final concentration of the different sugars are shown in FIG. 15J.

Data set [2] concerns autophagy-related transcription factor EB (TFEB) in OVK18 and Mewo cells. Nature of the data set: Elevated expression and nuclear localization of TFEB (western blotting, immunostaining). The data set is classed as cell-based, human. The settings on record: 50 mM 4-trehalosamine, 100 μM IMCTA-C14 or 100 mM trehalose, 14 hours. The protocol: Elevated expression and nuclear localization of autophagy-related transcription factor EB (TFEB) when human ovarian cancer cells or human malignant melanoma cells were treated with 4-trehalosamine or trehalose analog were determined by western blotting and immunostaining.
Fractionation of nuclear and cytoplasm was performed in the following manner using buffer that was a modification of the buffer according to the report of Dignam et al. (J. D. Dignam et al., Nucleic Acids Res, 1983, 11 (5), p. 1475-1489).
Human ovarian cancer cells OVK18 (obtained from RIKEN BRC) and human malignant melanoma cells Mewo (JCRB0066) were each inoculated on a 6-well plate at 2×10^5 cells/2 mL/well, and cultured in DMEM culture medium at 37° C. for 48 hours. After that, as with test example 10-1, a half of the culture fluid in each well was taken, and each compound was dissolved so that the final concentration is 50 mM 4-trehalosamine, 50 µM IMCTA-C14, 100 μM IMCTA-C14, or 100 mM trehalose. After dissolving it sufficiently, the cells were returned to the original well and treated at 37° C. for 14 hours. Untreated cells without addition of the compounds were used as control. […]
The protein concentration of each fraction was measured with protein quantification reagent (XL-Bradford, integrale) and the amount of expression of TFEB in each fraction was examined by western blotting. […]
Background: In western blotting, separated proteins are transferred to a membrane and probed.

As for `N[C@H]1[C@H](O)[C@@H](O)[C@@H](O[C@H]2O[C@H](CO)[C@@H](O)[C@H](O)[C@H]2O)O[C@@H]1CO` [4-trehalosamine], in data set [1], the “rate of degradation by β-amylase (starch aging inhibiting effect)” value is “significantly high rate of degradation by β-amylase at and after 48 hours compared to the other gels”. In data set [2], the “expression and nuclear localization of TFEB” value was “elevated expression and nuclear localization of TFEB”.
